{
  "source": "paper PMC5433701",
  "about": "“SPR-based fragment screening with neurotensin receptor 1 generates novel small molecule ligands” (PLoS ONE, 2017)",
  "key": {"pKa determination": {"assay": "pKa determination", "type": "physicochemical"}, "NTS1-H4 receptor": {"system": "NTS1-H4 receptor", "assay": "SPR competition of NT8-13 and SR142948 on NTS1-H4 receptor", "type": "binding, rat", "details": "100 nM NT8-13 then 100 nM SR142948 injected subsequently", "method": "Supplementary file pone.0175842.s003.pdf: S3 Fig Competition of neurotensin peptide NT8-13 and antagonist SR142948 on the NTS1-H4 receptor. NT8-13 agonist (saturating concentration of 100 nM) and antagonist SR142948 (saturating concentration of 100 nM) were injected subsequently over the NTS1-H4 receptor-coated surface. No binding of SR142948 was detected on the NTS1-H4 receptor that had been saturated previously by agonist NT8-13 peptide, indicating complete occupancy of the binding site and binding to the same binding site. (PDF) Click here for additional data file."}, "rat NTS1-H4 receptor": {"biological_target": "rat NTS1-H4 receptor", "assay": "SPR kinetic binding of reference ligands on captured NTS1-H4 receptor", "method": "All SPR binding experiments were performed on Biacore® 3000, T200 and Biacore 4000 (GE Healthcare, Uppsala, Sweden) instruments at 15°C in a running buffer composed of 20 mM Tris, 150 mM NaCl, 0.01% (v/v) L-MNG, 2% (v/v) DMSO, pH 8.0, at flow of 30 μl·min^-1. Running buffer was prepared freshly every day and filtered with Express™Plus Steritop filters with 0.22 μm cut off (Millipore, Billerica, MA, USA) and degassed prior to SPR analysis. Dose-response experiments for peptides were performed in the buffer without DMSO, as the analyzed peptide concentration range was in nM range and it was not necessary to work with DMSO in the running buffer to correct for the resonance signals. […]\nAll SPR data processing and analyses were performed using BiaEvaluation Software (version 1.0 (Biacore 4000) and 4.1 (Biacore 3000)), and GraphPadPrism (version 6.04). All monitored binding resonance signals were corrected regarding DMSO solvent signals and further double-referenced, i. e., signals monitored on the binding active channel were subtracted by signals from the reference channel (sensor surface not modified with any reference protein) and by buffer signals. […]"}, "NTS1-H4": {"biological_target": "NTS1-H4", "set-up": "method as in PMID 25064156", "details": "competition with fluorescently labeled NT8-13, NTS1-H4-coated beads; cited from earlier work"}},
  "note": "Where two headings read alike, the source gives them in different places.",
  "data": [
    {"compound": "COc1ccc(N(C(C)C)S(N)(=O)=O)cc1", "note": "[fragment 3]", "values": [
      {"measurement": "pKa", "setting": "pKa determination; read-out: pKa1 ± σ", "result": "6.49 ± 0.04"},
      {"measurement": "pKa", "setting": "pKa determination; read-out: pKa2", "result": "11.04 ± 0.08"}
    ]},
    {"compound": "COc1cccc(S(=O)(=O)c2ccccc2CC(N)=O)c1", "note": "[fragment 2]", "values": [
      {"measurement": "pKa1 ± σ", "setting": "pKa determination", "result": "out of range"}
    ]},
    {"compound": "COc1ccc(Cc2nn[nH]n2)cc1", "note": "[fragment 4]", "values": [
      {"measurement": "pKa", "setting": "pKa determination; read-out: pKa1 ± σ", "result": "4.86 ± 0.08"}
    ]},
    {"compound": "SR142948", "values": [
      {"measurement": "binding to NTS1-H4 receptor previously saturated by NT8-13", "setting": "NTS1-H4 receptor", "result": "No binding"},
      {"measurement": "Kd", "setting": "rat NTS1-H4 receptor", "result": 400, "unit": "pM"},
      {"measurement": "Ki", "setting": "NTS1-H4", "result": 500, "unit": "pM"}
    ]},
    {"compound": "Nc1nnc2c(C(F)(F)F)nc3ccccc3n12", "note": "[fragment 1]", "values": [
      {"measurement": "pKa", "setting": "pKa determination; read-out: pKa1 ± σ", "result": "2.14 ± 0.04"}
    ]}
  ]
}
